Experimental data reported in patent publication US20110152362A1, “METHODS OF TREATING EPILEPTOGENESIS AND EPILEPSY” (priority 2004, published 2011).

Assay: Example 3 study 2: repeated oral dose (q12h, 1 wk) pharmacokinetics in healthy men
Assay type: in vivo, human
Description: Two single-center, placebo-controlled, double-blind, ascending-dose studies were conducted in healthy men ≧18 and ≦45 yrs. In study 1 (N=70), subjects were randomly assigned to a single dose of Test Compound (TC) or placebo. Escalated doses were received as 100, 250, 400, 750, 1000, 1250, and 1500 mg. PK parameters were estimated from plasma and urine samples collected up to 3 days post dose. Study 2 (N=53) evaluated the PK of repeated doses of Test Compound (TC) in 4 dose groups (100, 250, 500, or 750 mg). Within each group, 12 subjects were assigned to q12h treatment with drug or placebo for 1 wk and were crossed over after a 14-day washout period. PK parameters were estimated from plasma and urine samples on days 1 and 7.

[1] = repeated doses q12h, 100-750 mg

NC(=O)OC[C@@H](O)c1ccccc1Cl [TC]
Mean CLR relative to mean oral clearance (healthy men): < 5 % of the mean oral clearance
Tmax at 1 wk (male, human, plasma, oral, repeated doses q12h, 100-750 mg): 1.3 to 1.8 h
half-life at 1 wk (male, human, plasma, oral, repeated doses q12h, 100-750 mg, read-out: mean t1/2 at steady state): 11.9 to 12.8 h
accumulation: Cmax and AUC0-12 on day 7 vs. day 1 (q12h administration, listed as Test Compound): about two-fold
Steady-state Cmax and AUC0-12 dose dependence (repeated doses 100-750 mg): increased in proportion to the dose
mean CL/F at steady state [1]: 3.40 to 3.78 L/h
time for plasma concentrations to reach steady state [1]: 3 to 4 days
linearity of PK (single (100-1500 mg) and repeated (100-750 mg bid) doses, healthy adult men): linear
